Measured values taken from patent publication US9394544B2, “Ameliorating oxidative stress in neurodegenerative disease via Nox1 targeting” (University of Central Florida Research Foundation, Inc., priority 2013, dated 2016).

Legend:
[1] = tested on: N27 cells; assay: 8-oxo-dG immunostaining (oxidative DNA damage) in N27 cells; type: cell-based, rat
Excerpt: To substantiate that nuclear Nox1/Rac1 complex produces superoxide, it was investigated whether selective inhibition of the Nox1/Rac1 complex attenuates ROS production. Adeno-associated virus serotype 2 (AAV2) expression cassettes with either Nox1 shRNA or a T17N dominant negative Rac1 variant were used to knockdown Nox1 or inhibit Rac1, respectively. These vectors separately expressed Green Fluorescent Protein (GFP) as a marker for transduction efficiency. […] The increased levels of active Nox1/Rac1 complex (FIG. 4B) in the nucleus, and increased ROS (FIGS. 5A and 5B) of DA cells in the presence of 6-OHDA, led one to investigate whether oxidative DNA damage occurs in the nucleus. […] As early as 3 days after striatal injection of 6-OHDA, 8-oxo-dG staining was increased in the SN (FIG. 5E). […]
For fluorescent immunostaining, N27 cells in the 4-well chamber slide were incubated for 1 h at 37° C. in 2% normal donkey serum containing either a rabbit polyclonal antibody against Nox1 (1:500), or p-c-jun (1:500). […] Specific binding was detected by incubation for 60 min at room temperature with a 1:200 dilution of secondary antibodies conjugated to AlexaFluor 546 dyes. […] Mounted slices were evaluated for fluorescence under settings for 546 and 488 nm emissions on a confocal microscope.

[2] = tested on: DA neurons in the rat SN; assay: 8-oxo-dG immunostaining in the SN of 6-OHDA-treated rats; type: in vivo; settings: striatal injection
Description: The experiments were carried out on rats, in accordance with the NIH Guide for the Care and Use of Laboratory Animals. All procedures were approved by the local Animal Care and Use Committee. Female Sprague Dawley (SD) rats (Charles River; 8-weeks-old at the time of the beginning of AAV expression or 6-OHDA treatment, 2 or 3 per cage) were maintained in a temperature/humidity-controlled environment under a 12 h light/dark cycle with free access to food and water. All rats were respectively allocated into […], Nox1 shRNA/AAV, T17N Rac1/AAV, and scramble (scb) shRNA/AAV or empty vector/AAV as control groups. Rats were deeply anesthetized (ketamine and xylazine mixture 30 mg/kg, i.p.) and placed in a rat stereotaxic apparatus, a site in the right substantia nigra (SN) [coordinate: anteroposterior (AP), −5.3 mm; mediolateral (ML), +2.0 mm; dorsoventral (DV), −5.8 mm] was selected to inject scb shRNA/AAV (n=8), Nox1 shRNA/AAV (n=16), T17N Rac1/AAV (n=16), and empty vector/AAV (n=28), respectively, according to the grouping. […]
Rats were deeply anesthetized with sodium pentobarbital (120 mg/kg) and transcardially perfused with saline containing 0.5% sodium nitrite and 10 U/ml heparin sulfate, followed by 4% cold formaldehyde generated from paraformaldehyde in 0.1 M PBS (pH 7.2). […] Mounted slices were evaluated on light microscope.

With NCCc1cc(O)c(O)cc1O [6-OHDA, 6-hydroxydopamine] the “DNA oxidative damage (8-oxo-dG immunoreactivity in the nucleus) caused by toxin” value [1] was “increased DNA oxidative damage” and the “DNA oxidative damage (8-oxo-dG immunoreactivity in the nucleus) caused by toxin” value [2] was “increased DNA oxidative damage”.
